Test results taken from patent publication US6485756B1, “Stable, homogeneous natural product extracts containing polar and apolar fractions” (Collaborative Technologies, Inc., priority 1999, dated 2002).
Values joined by “and” are separate entries in the source; they are usually repeats but may differ in a detail not shown here. Equal entries are not always repeated.

Legend:
[1] = tested on: Dopa Oxidase Activity of a Mushroom Tyrosinase; details: Shin et al., BBRC 1998; cited from earlier work
Human Leukocyte Elastase = target: T1, Human Leukocyte Elastase (Homo sapiens, UniProt P08246); details: Ying et al., Biochem. J. 1991; cited from earlier work
T1 sequence (P08246 30-267): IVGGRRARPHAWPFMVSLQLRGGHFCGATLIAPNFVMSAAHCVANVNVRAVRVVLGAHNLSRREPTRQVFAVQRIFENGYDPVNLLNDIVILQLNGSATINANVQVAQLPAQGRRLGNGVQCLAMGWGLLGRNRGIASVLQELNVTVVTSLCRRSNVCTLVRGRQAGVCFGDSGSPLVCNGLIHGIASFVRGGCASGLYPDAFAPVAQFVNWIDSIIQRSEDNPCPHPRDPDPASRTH

Cloudman S91 melanocytes = assay: Melanocyte pigmentation assay; type: cell-based; details: conc. 30 μm; positive control
Description: Melanocyte Pigmentation Assay
The following materials were used in the melanocyte pigmentation assay. Cloudman S91 cells (36-1-38C8-16) were obtained from American Type Culture Collection. Dulbecco's Modified Eagle's Medium (“DMEM”; 11885-076), heat-inactivated horse serum (26050-088), heat-inactivated fetal bovine serum (10082-147) and 5000 units/ml penicillin/50 μg/ml streptomycin (15070-063) were obtained from Gibco BRL. Phosphate-buffered saline (PBS; 1000-3), dimethyl sulfoxide (D2650), hydroquinone (H9003), α-melanocyte stimulating hormone (M4135), trichloroacetic acid (T9159) and sodium hydroxide (S8045) were obtained from Sigma. Optical densities were determined using a Dynatech MR5000 spectrophotometer.
The melanocyte pigmentation assay measures a test sample's ability to inhibit pigmentation. […] After a 5-day treatment period with each condition tested in triplicate wells, the cells were harvested by washing with PBS and adding 5% trichloroacetic acid to each well. […] 200 μl of each digestion mixture was then transferred to a well of a 96-well microtiter plate and optical densities were read at 405 nm.
Inhibition of pigmentation is expressed as the percentage decrease in optical density compared to that for untreated cells (no test sample or hydroquinone). […]

Lipid Peroxidation assay = type: biochemical; details: for OD532 at indicated time (min) 0: 0 min; for OD532 at indicated time (min) 60: 60 min; for OD532 at indicated time (min) 120: 120 min; for OD532 at indicated time (min) 240: 240 min
Description: Lipid Peroxidation Assay Thiobarbituric acid (“TBA”; […]), sodium dodecyl sulfate ([…]), butylated hydroxytoluene (B1378), […]) and phosphate-buffered saline (“PBS”; 1000-3) were obtained from Sigma. Lecithin (429415) was obtained from Calbiochem. Ethanol (122898) was obtained from Aaper Alcohol and Chemical Co. Vitamin C (95209) was obtained from Fluka. Ferric chloride (AR5029) was obtained from Mallinckrodt. Optical densities were determined using a SpectraMax 250 spectrophotometer (Molecular Devices). Ultraviolet irradiation was performed using a model VWR […] Chromato-Vue transilluminator (VWR Scientific). The Lipid Peroxidation assay measures inhibition of UV-induced lipid oxidation. The reaction was performed at room temperature by irradiating liposome solutions, containing varying concentrations of test samples, with ultraviolet C light. The extent of lipid peroxidation induced by the UV light was determined by measuring the consequent production of malondialdehyde that results from breakdown of oxidized lipid. […] Vitamin C, a peroxyl radical scavenger, was included in each assay as a control for inhibition of lipid oxidation. Duplicate aliquots of the irradiation mixtures were harvested at several time points and their malondialdehyde contents were measured using the “thiobarbituric acid reaction”. […] The mixtures were heated at 100° C. for 15 minutes, cooled to room temperature and their absorbencies were read at 532 and 650 nm. The readings at 650 nm were subtracted from those at 532 nm to correct for turbidity. These corrected absorbencies were plotted as a function of irradiation time and the rate of lipid peroxidation was determined by linear regression curve fit.

In the case of `Oc1cc(O)cc(/C=C/c2ccc(O)cc2O)c1` [oxyresveratrol], the “tyrosinase inhibition (in words)” value [1] is given as “very potent tyrosinase inhibitor”.
In the case of `C[C@H]1[C@H](C)CC[C@]2(C(=O)O)CC[C@]3(C)C(=CC[C@@H]4[C@@]5(C)CC[C@H](O)C(C)(C)[C@@H]5CC[C@]43C)[C@H]12` [Ursolic acid], the “elastase inhibition (in words)” value (Human Leukocyte Elastase) is given as “potent elastase inhibitor”.
In the case of `Oc1ccc(O)cc1` [hydroquinone], the “% inhibition” value (Cloudman S91 melanocytes) is reported as 28% and the “Culture pigmentation (OD405nm) mean” value (Cloudman S91 melanocytes) is reported as 0.747.
For `O=C1O[C@H]([C@@H](O)CO)C(O)=C1O` [Vitamin C], the “% antioxidant effect” value (Lipid Peroxidation assay; Sample conc. 0.03 %) was 82% and 90%, the “Rate of Lipid Peroxidation” value (Lipid Peroxidation assay; Sample conc. 0.03 %) was 54 MOD532/min and 30 MOD532/min and the “OD532 at indicated time (min) 0” value (Lipid Peroxidation assay; Sample conc. 0.03 %) was 0.012 and 0.014. For the same molecule, the “OD532 at indicated time (min) 60” value (Lipid Peroxidation assay; Sample conc. 0.03 %) was 0.013 and 0.0125, the “OD532 at indicated time (min) 120” value (Lipid Peroxidation assay; Sample conc. 0.03 %) was 0.016 and 0.014 and the “OD532 at indicated time (min) 240” value (Lipid Peroxidation assay; Sample conc. 0.03 %) was 0.025 and 0.0205. For the same molecule, the “% antioxidant effect” value (Lipid Peroxidation assay; Sample conc. 0.3 %) was 97% and 99%, the “OD532 at indicated time (min) 0” value (Lipid Peroxidation assay; Sample conc. 0.3 %) was 0.011 and the “OD532 at indicated time (min) 60” value (Lipid Peroxidation assay; Sample conc. 0.3 %) was 0.012 and 0.011. The “OD532 at indicated time (min) 120” value (Lipid Peroxidation assay; Sample conc. 0.3 %) was 0.013 and 0.011 and the “OD532 at indicated time (min) 240” value (Lipid Peroxidation assay; Sample conc. 0.3 %) was 0.012.
